The text below walks through data of US3984554A, “Animal fodder compositions containing a 4-amino-pyrimido-( 4,5,b)-quinoxaline-5,10-dioxide and method of using same” (Bayer Aktiengesellschaft, priority 1970, dated 1976).

The subject of test [1] is Staphylococcus aureus 133. Put plainly: Minimum inhibitory concentration (MIC) in the plate test. In kind it is cell-based. As to conditions: pH 7.4. From the text: (§1) The compounds according to the invention are effective against Gram-negative and Gram-positive bacteria. Favorable inhibition values are obtained in the plate test (Table 1) against staphylococci and streptococci which are Gram-positive bacteria, and against enterobacteria (for example Escherichia coli, Proteus and Klebsiella) which are Gram-negative bacteria.
(§2) Minimum inhibitory concentration (MIC) in the plate test:
(§3) The medium used had the following composition
(§4) Disodium phosphate 2.0 g
(§5) Adenine sulphate 0.01 g
(§6) Guanine hydrochloride 0.01 g
(§7) 1000 ml of distilled water
(§8) pH value of the medium:
(§9) Minimum inhibitory concentrations in γ/ml

Test [2] deals with Streptococcus pyogenes W. The test is described as above. In kind it is cell-based. Particulars: pH 7.4.
Source text: as §1, §2, §3, §4, §5, §6, §7, §8, §9

In test [3] the test system is Escherichia coli C 165. The test is described as above. In kind it is cell-based. Particulars: C165, pH 7.4.
Source text: as §1, §2, §3, §4, §5, §6, §7, §8, §9

In test [4] the test system is Escherichia coli A 261. The test is described as above. Particulars: A261, pH 7.4. In kind it is cell-based.
Source text: as §1, §2, §3, §4, §5, §6, §7, §8, §9

In test [5] the test system is Klebsiella 8085. The test is described as above. The test is classed as cell-based. As to conditions: pH 7.4.
Source text: as §1, §2, §3, §4, §5, §6, §7, §8, §9

The test system of test [6] is Proteus vulgaris. The test is described as above. The test is classed as cell-based. As to conditions: pH 7.4.
Source text: as §1, §2, §3, §4, §5, §6, §7, §8, §9

Test [7] relates to Pseudomonas aeruginosa Bonn. Described as above. The test is classed as cell-based. Particulars: pH 7.4.
Source text: as §1, §2, §3, §4, §5, §6, §7, §8, §9

Test [8] can be described thus: Chick fattening experiment (fodder additive). The test is classed as in vivo. Particulars: chicks, 20 ppm in fodder; for Ratio of total weight increase/control: control 100.0. From the text: The good effectiveness of the compounds according to the invention as fodder additives can be seen from the chick fattening experiment described below (Table 2).
The substances, ground with the fodder, were fed to one-day old chicks. The feeding lasted for seven weeks. Table 2 below gives the experimental data for the compound obtainable according to Example 2, for each of the 7 weeks.

Structures are written as SMILES. ≈ marks a conversion by molar mass, not a printed value.

What is called MIC is the lowest concentration that inhibits growth of the organism. Low values mean a more susceptible organism, high ones a less susceptible organism.

As to `CNc1ncnc2c1[n+]([O-])c1ccccc1[n+]2[O-]` [Example 1, 4-methylamino-pyrimido-(4,5,b)-quinoxaline-5,10-dioxide], the MIC in test [1] came out at 2.5 µg/mL (≈ 10.3 µM); in test [2] it was 20 µg/mL (≈ 82.2 µM); in test [3], 5 µg/mL (≈ 20.6 µM); in test [4], 5 µg/mL (≈ 20.6 µM); in test [5] it was 5 µg/mL (≈ 20.6 µM); in test [6], 5 µg/mL (≈ 20.6 µM). Also, the lowest concentration to inhibit growth in test [7] (MIC) was 50 µg/mL (≈ 206 µM).

Regarding `CCNc1ncnc2c1[n+]([O-])c1ccccc1[n+]2[O-]` [Example 2], the MIC in test [1] stood at 5 µg/mL (≈ 19.4 µM); in test [2], 20 µg/mL (≈ 77.7 µM); in test [3], 160 µg/mL (≈ 622 µM); in test [4] it was 20 µg/mL (≈ 77.7 µM); in test [5], 10 µg/mL (≈ 38.9 µM); in test [6], 10 µg/mL (≈ 38.9 µM). Besides, the MIC in test [7] turned out to be 150 µg/mL (≈ 583 µM). The Total weight increase is 92 g in test [8] (week 1, control 84); 262 g in test [8] (week 2, control 248); 466 g in test [8] (week 3, control 429); 678 g in test [8] (week 4, control 607); 993 g in test [8] (week 5, control 922); 1310 g in test [8] (week 6, control 1250). For the same molecule, the Total weight increase in test [8] (week 7, control 1479) is recorded as 1574 g. The “Ratio of total weight increase/control” value in test [8] (week 1) is on record as 109.5%; in test [8] (week 2), 105.6%; in test [8] (week 3), 108.6%; in test [8] (week 4) it was 111.7%; in test [8] (week 5), 107.7%; in test [8] (week 6), 104.8%. For the same molecule, in test [8] (week 7), the “Ratio of total weight increase/control” value was determined as 106.4%.

In the case of `CCCNc1ncnc2c1[n+]([O-])c1ccccc1[n+]2[O-]` [Example 3], the minimal inhibitory concentration (MIC) in test [1] is 10 µg/mL (≈ 36.9 µM); in test [2], 20 µg/mL (≈ 73.7 µM); in test [3], 100 µg/mL (≈ 369 µM); in test [4], 100 µg/mL (≈ 369 µM); in test [5], 100 µg/mL (≈ 369 µM); in test [6], 100 µg/mL (≈ 369 µM). The molecule also showed an MIC in test [7] of 150 µg/mL (≈ 553 µM).

With `CC(C)Nc1ncnc2c1[n+]([O-])c1ccccc1[n+]2[O-]` [Example 4], the MIC stood at 10 µg/mL (≈ 36.9 µM) in test [1]; 20 µg/mL (≈ 73.7 µM) in test [2]; 100 µg/mL (≈ 369 µM) in test [3]; 100 µg/mL (≈ 369 µM) in test [4]; 100 µg/mL (≈ 369 µM) in test [6]; 150 µg/mL (≈ 553 µM) in test [7].

For the molecule `CCCCNc1ncnc2c1[n+]([O-])c1ccccc1[n+]2[O-]` [Example 5], the values for the MIC in test [1] and in test [2] were 10 µg/mL (≈ 35 µM) and 20 µg/mL (≈ 70.1 µM), respectively.

In turn, `[O-][n+]1c2ccccc2[n+]([O-])c2c(NC3CCCCC3)ncnc21` [Example 6] returned an MIC in test [1] of 10 µg/mL (≈ 32.1 µM).

On to `[O-][n+]1c2ccccc2[n+]([O-])c2c(NCCO)ncnc21` [Example 7], for which the minimum inhibitory concentration (MIC) in test [1] was found to be 100 µg/mL (≈ 366 µM); in test [2], 10 µg/mL (≈ 36.6 µM); in test [3], 100 µg/mL (≈ 366 µM); in test [4], 100 µg/mL (≈ 366 µM); in test [5] it was 150 µg/mL (≈ 549 µM); in test [6], 100 µg/mL (≈ 366 µM). This molecule showed an MIC in test [7] of 100 µg/mL (≈ 366 µM).
